Data reported in a melting point compilation (Tetko et al.; mined from patent text by program, amines drawn as free bases though some values may be those of a salt).

| Structure (SMILES) | melting point |
| --- | --- |
| CC(C)Nc1c(-c2c(F)cc(F)cc2F)c(Cl)nc2ncccc12 | 193 °C |
| CCN1c2ncc(C=O)cc2C(=O)N(C)c2ccc(Cl)nc21 | 199 to 201 °C |
| Cn1c2ccc(Br)cc2c2cc(C(=O)N3CCOCC3)sc21 | 184 °C |
| O=C1CCC(O)(c2ccc3c(c2)OCO3)CC1 | 162 to 164 °C |
| CCCCCCCCCCCCCCCCc1ccc(S(=O)(=O)Nc2nncs2)cc1 | 118 to 119 °C |
| CC1(C)OCC2OC2CO1 (stereo unspecified) | 70 to 74 °C |
| CC(C)(C)CCP1C(O)C(O)P(CCC(C)(C)C)C(O)C1O (stereo unspecified) | 186 to 210 °C |
| Cc1c(-c2ccccc2)oc2c(S(=O)CCCCCl)cccc2c1=O (stereo unspecified) | 124 to 125 °C |
| O=C1c2nc3ccccn3c2C(=O)c2cccc(F)c21 | > 260 °C |
| CC(Cc1ccc(CC2SC(=O)NC2=O)cc1)NCC(O)c1cc(Cl)c(N)c(Cl)c1 (stereo unspecified) | 195 to 201 °C |
| COc1cccc(OC)c1-c1ccc(C[C@H](NC(=S)c2c(Cl)cccc2Cl)C(=O)O)cc1 | 180 °C |
| CC(C)c1ccc(/C=C/C(=O)/C=C/c2ccccc2)cc1 | 76 to 78 °C |
| CCC(=O)N1Cc2cnn(C)c2-c2cc(Cl)ccc21 | 127 to 128 °C |
| Cc1cc(OCCCCOCc2ccccc2)cc(C)c1N=Nc1ccc([N+](=O)[O-])cc1 | 68 to 69.5 °C |
| COc1cc(CC(=O)Nc2nn(-c3ccccc3)cc2C=O)ccc1OCc1nc(-c2ccco2)oc1C | 190 to 191 °C |
| CCOC(=O)Cn1c(=O)c(=O)[nH]c2cc(C(F)(F)F)c(-n3ccc(C=O)c3)cc21 | 236 to 237 °C |
| O=C(CP(=S)(c1ccccc1)c1ccccc1)c1ccccc1 | 83 to 84 °C |
| COC(=O)C1=CC=CC(C(=O)OC)(N(c2ccccc2)c2ccc(-c3ccc(N(c4ccccc4)C4(C(=O)OC)C=CC=C(C(=O)OC)C4)cc3)cc2)C1 (stereo unspecified) | 136 to 141 °C |
| O=C(NCCO)c1cccc(-c2cccc3nn(Cc4ccccc4)cc23)c1 | 166 to 167 °C |
| NC(=O)CNC(=O)c1ccc(F)c(-c2ccc(F)c3cc(Cc4cc(F)cc(Cl)c4)sc23)c1 | 178 to 179 °C |
| N#CC(=CNc1ccccc1)Cc1cnc2ccccc2c1 | 202 to 203 °C |
| CCCCCS(=O)(=O)NC(=O)CCc1cc(C(C)C)nn1Cc1ccc(Cl)cc1Cl | 115 to 117 °C |
| [N-]=[N+]=NCC1OC(n2c(N=[N+]=[N-])nc3c(N)ncnc32)C(O)C1O (stereo unspecified) | 128 to 130 °C |
| O=C(O)c1cc2cc(Cl)ccc2nc1NC(Cc1cccc(F)c1)C(=O)O (stereo unspecified) | 177 to 181 °C |

| Structure (SMILES) | melting point |
| --- | --- |
| O=C1CCC(N2Cc3c(OCc4ccc(CN5CCN(S(=O)(=O)C6CC6)CC5)cc4)cccc3C2=O)C(=O)N1 (stereo unspecified) | 145 to 147 °C |
| CC(C)CNS(=O)(=O)c1cccc(NC(=O)c2cnn3c(C(F)F)cc(-c4ccc(C(F)(F)F)cc4)nc23)c1 | 186 °C |
| CC(=O)C(Cl)=NNc1cccc(C)c1 | 144 to 146 °C |
| O=C(Cc1ccncc1)NC(Cc1c[nH]c2ccccc12)C(O)CCc1cc(C(F)(F)F)cc(C(F)(F)F)c1 (stereo unspecified) | 213 to 214 °C |
| COc1ccc(-c2cc3cc(OC)cc(CC#N)c3o2)cc1 | 149 to 150 °C |
| CC(=O)Oc1ccc(-c2cc(=O)c3cc(Br)cc([N+](=O)[O-])c3o2)cc1F | 236 to 238 °C |
| O=[N+]([O-])C(=CC(O)C(=C1NCCN1Cc1ccc(Cl)nc1)[N+](=O)[O-])C1=NCCN1Cc1ccc(Cl)nc1 (stereo unspecified) | 157 to 162 °C |
| CCCCCCCCCCCCCC/C=C\CC[C@@H]1OC(=O)C(O)=C1O | 64 to 66 °C |
| COC(=O)[C@H](CCC(=O)O)N1C(=O)c2ccccc2C1=O | 137 to 138 °C |
| Cc1nc2c(C)cccn2c1C1=NNC(=O)CO1 | 310 to 313 °C |
| COc1ccc(C(=NO)c2c(F)cccc2F)c(Cl)c1Cl | 180 to 186 °C |
| COc1ccc(Cl)nc1C(N)=O | 223 to 224 °C |
| O=C(CNC(=O)OCc1ccccc1)OCc1ccccc1 | 72 °C |
| COc1cc(OC)c2cnc(-c3cc(C)c(OCCO)c(C)c3)nc2c1 | 169 to 170 °C |
| Cc1nc(C=Cc2nc3ccc(F)cc3c(=O)n2-c2ccccc2C)cs1 | 211 to 212 °C |
| CCCCc1ccnc(C2(C(=S)NC)CCCS2)c1 (stereo unspecified) | 102 °C |
| CC(C)NCC(O)(Cn1cncn1)c1ccc(Cl)cc1Cl (stereo unspecified) | 132 to 133 °C |
| Cc1ccc(Nc2nc(Cl)nc(Cl)n2)cc1F | 130 °C |
| CC1=C(OS(=O)(=O)c2ccc(C)cc2)C(=O)C(C)O1 (stereo unspecified) | 70 to 72 °C |
| CC(C)c1ccc(S(=O)(=O)Nc2ccc(OC(F)(F)F)cc2I)cc1 | 72 °C |
| COc1cc(C=O)c(C)c(OC)c1 | 63.4 to 65.1 °C |
| O=C(OCC1OC(n2ccc(=O)[nH]c2=O)CC1OC(=O)c1ccccc1)c1ccccc1 (stereo unspecified) | 223 to 225 °C |
| COc1cc(C(=O)CS(=O)(=O)c2ccccc2)ccc1Cc1cn(C)c2ccc(NC(=O)NC3CCCC3)cc12 | 203 to 206 °C |
| COc1nc(C)c(N2CCCn3c2nc2cccc(C(O)C(F)(F)F)c23)c(C)n1 (stereo unspecified) | 296 to 299 °C |

| Structure (SMILES) | melting point |
| --- | --- |
| CCOC(=O)c1cnc2sc(C(=O)Cc3ccccc3)c(C)c2c1O | 208 to 214 °C |
| O=S(=O)(c1ccccc1)N1CCN(CC(O)CCl)CC1 (stereo unspecified) | 136 to 137 °C |
| COc1ccc(-c2ccc(-c3ccc(OC)cc3)c(-c3ccc(O)cc3)n2)cc1 | 204 to 205 °C |
| CCn1cc(C(=O)O)c(=O)c2cc(F)c(OC3CCN(C)CC3)cc21 | 268 to 271 °C |
| CC(C)(C)NC(=O)[C@@H]1C[C@H](O)CN1C(=O)[C@@H](O)[C@H](Cc1ccccc1)NC(=O)[C@H](CC(N)=O)NC(=O)OCc1ccccc1 | 113 to 115 °C |
| CC(C)CC(=O)Nc1cccc(-c2ccnc3c(-c4cccc5cccnc45)cnn23)c1 | 96 to 99 °C |
| Cc1c(Cl)c(=O)[nH][nH]c1=O | 305 to 310 °C |
| COc1cc2c(cc1Nc1ncc(Cl)c(NC3(C(=O)NCC#N)CC3)n1)CCN(CC(=O)N(C)C)CC2 | 120 to 128 °C |
| O=C(O)c1cc(O)c(Cl)c(Cl)c1 | 211 °C |
| Cc1cccc(-c2nc3cccnn3c2-c2ccnc(N)n2)c1 | 250 to 251 °C |
| COc1cc(-c2nc3ccc(OCCN4CCCCC4)cc3n2Cc2ccccc2Br)cc(OC)c1OC | 145 °C |
| COc1ccc(CS[C@@H]2C[C@@H](C(=O)NN)N(S(=O)(=O)c3ccc4ccccc4c3)C2)cc1 | 130 °C |
| COc1cccc(CNC(=O)c2[nH]c3ccc(Cl)cc3c2S(=O)(=O)c2ccccc2)c1 | 203 to 204 °C |
| Cc1nc(OC[C@@H]2COC(C)(C)O2)c(C#N)c(N2CCc3ccccc3CC2)n1 | 110 to 112 °C |
| COc1ccc(OC)c2c(Nc3ccc4cn[nH]c4c3)c(C#N)cnc12 | 302 to 305 °C |
| Cc1ncn(C)c1-c1nc(C2CC2)no1 | 88 °C |
| Cc1c(F)c(N)cc(Br)c1F | 68 to 68.5 °C |
| CCCN1CC(c2ccc(S(C)(=O)=O)cc2)=C(Oc2ccccc2)C1=O | 163 to 165 °C |
| COc1ccc(-c2[nH]nc3c2C(=O)c2c(NC(=O)NNC(=O)c4ccc(O)cc4)cccc2-3)cc1 | 283 °C |
| CCc1nn(C2CCCC2)c2cc(C(=O)N(C)c3c(Cl)cncc3Cl)ccc12 | 118 to 119 °C |
| COc1ccc(C(NCC(c2ccccc2)c2ccccc2)c2cccc(Nc3c(N)c(=O)c3=O)c2)cc1 (stereo unspecified) | 193 to 194 °C |
| CCc1c2c(nc3ccccc13)-c1cc3c(c(=O)n1C2)COC(=O)CC3(O)CC (stereo unspecified) | > 280 °C |
| COc1nc(S(C)(=O)=O)cnc1NS(=O)(=O)c1cccc(Cl)c1Cl | 237 to 238 °C |
| CCC1=C(c2cccc(C(F)(F)F)c2)n2ncc(C#N)c2N(C(=O)CN2CCN(Cc3ccccc3)CC2)C1 | 97 to 99 °C |

| Structure (SMILES) | melting point |
| --- | --- |
| Nc1nc(COc2cccc(Cl)c2Cl)nc2nccnc12 | 216 to 218 °C |
| O=c1c2cnc(-c3ccccc3)nc2sn1CCN1CCOCC1 | 163 to 165 °C |
| CSc1oc2ccc(Br)cc2c(=O)c1-c1ccc(Cl)cc1 | 205 to 206 °C |
| Fc1cnc(OC(c2ccnc3cc(Cl)ccc23)C(F)(F)F)nc1 (stereo unspecified) | 92 °C |
| COc1ccc(C(F)(F)F)cc1Nc1cccn2nc(Nc3cccc(N4CCN(C)CC4)c3)nc12 | 198 to 200 °C |
| NC(=O)NC1CCN2CCc3ccccc3C2C1 (stereo unspecified) | 235 °C |
| Cc1nn(-c2c(Cl)cc(C(F)(F)F)cc2Cl)nc1C(=O)Nc1ccccc1 | 185 to 186 °C |
| Cc1cnc(-c2ccc(-c3ccccc3S(=O)(=O)Nc3onc(C)c3C)cc2)o1 | 90 to 100 °C |
| COCC1CN(C(=O)c2cc(OC)c(OC)c(OC)c2)CCN1C(=O)C1=Cc2cc(OC)c(OC)cc2CCC1 (stereo unspecified) | 137 °C |
| CCNC(=O)c1cccc(-c2c(CC(=O)Nc3ccc(Cl)cc3C(F)(F)F)c(=O)oc3cc(Cl)c(C)cc23)c1 | 220 to 222 °C |
| O=[N+]([O-])c1ccc(Oc2ccccc2Oc2ccc(Cl)cn2)nc1 | 82 to 84 °C |
| Oc1nc(-c2cccnc2)sc1-c1ccccc1 | 273 to 276 °C |
| COC(=O)c1ccc(S(=O)(=O)N2CC[C@H](OS(C)(=O)=O)C2)n1C | 79 to 81 °C |
| COc1cc(CCNC(=O)N(C)O)cc(OC)c1OC | 100 to 102 °C |
| COc1ccc(C2(C#Cc3cccc([N+](=O)[O-])c3)CCCC(=O)C2)cc1OC1CCCC1 (stereo unspecified) | 46 to 48 °C |
| CS(=O)(=O)NC(=O)Cc1ccc2c(c1)Nc1nccnc1S2 | 236 to 238 °C |
| c1ccc(-c2nc(COc3ccc(CCCn4ccnc4)cc3)cs2)cc1 | 110 to 111 °C |
| CC(Cc1c[nH]c2ccccc12)(NC(=O)OC1C2CC3CC(C2)CC1C3)C(=O)NCC(NC=O)c1ccccc1 (stereo unspecified) | 102 to 118 °C |
| NC(=O)c1[nH]c2cccnc2c1Sc1cccc(F)c1 | 235 to 237 °C |
| FC(F)(F)c1cccc(-c2cnnn2-c2cc(Cl)ccc2OCc2nnn[nH]2)c1 | 181 to 184 °C |
| COc1cccc(Nc2n[nH]c(N=CN(C)C)c2C#N)c1 | 227 to 231 °C |
| CCC(=O)Nc1ccc(C(=O)CC)cc1 | 154 to 155 °C |
| c1ccc(NN2CCc3ccccc3C2)nc1 | 116 to 117 °C |
| NC(=O)CCCCCOc1cc(-c2ccccc2)cc(-c2ccccc2)n1 | 118 to 120 °C |
